Laboratory results: patent publication US8030498B2, “Benzoylpyrazole compounds and herbicides containing them” (Ishihara Sangyo Kaisha, Ltd., priority 2005, dated 2011)

What was measured:
[1] = test system: barnyardgrass (Echinochloa crus-galli L.); experiment: Test Example 1: foliar treatment, growth inhibition rate, barnyardgrass; format: in vivo; conditions: visually observed 17th to 23rd day after application
Description: (§1) Upland field soil was put into a 1/170,000 hectare pot, and seeds of various plants were sown. When the respective plants reached predetermined leaf stage ((1) barnyardgrass (Echinochloa crus-galli L.); 0.8 to 2.5 leaf stage, (2) crabgrass (Digitaria sanguinalis L.): 0.5 to 3.0 leaf stage, (3) greenfoxtail (Setaria viridis L.): 1.0 to 3.0 leaf stage, (4) redroot pigweed (Amaranthus retroflexus L.): cotyledon stage to 2.0 leaf stage, (5) prickly sida (Sida spinosa L.): cotyledon stage to 1.1 leaf stage, (6) velvetleaf (Abutilon theophrasti MEDIC.): cotyledon stage to 1.5 leaf stage, (7) rice (Oryza sativa L.): 1.0 to 2.5 leaf stage, (8) wheat (Triticum spp.): 1.7 to 3.4 leaf stage, (9) corn (Zea mays L.): 2.0 to 3.5 leaf stage, and (10) soybean (Glycine max Merr.): primary leaf stage to 0.3 leaf stage), wettable powders or emulsifiable concentrates of the compounds of the present invention prepared in accordance with a conventional preparation method, were weighed so that the active ingredients became the prescribed amounts, and diluted with water in an amount corresponding to 500 liter per 1 hectare. 0.1 vol % of an agricultural spreader was further added to the respective diluted liquids, followed by foliar treatment with a small sprayer.
(§2) On the 17th to 23rd day after application, the state of growth of the respective plants was visually observed, and the herbicidal effect was evaluated in accordance with a growth inhibition rate (%) of 0 (equivalent to the non-treated area) to 100% (complete kill).

[2] = test system: crabgrass (Digitaria sanguinalis L.); experiment: Test Example 1: foliar treatment, growth inhibition rate, crabgrass; format: in vivo; conditions: visually observed 17th to 23rd day after application
Description: as §1, §2

[3] = test system: greenfoxtail (Setaria viridis L.); experiment: Test Example 1: foliar treatment, growth inhibition rate, greenfoxtail; format: in vivo; conditions: visually observed 17th to 23rd day after application
Description: as §1, §2

[4] = test system: redroot pigweed (Amaranthus retroflexus L.); experiment: Test Example 1: foliar treatment, growth inhibition rate, redroot pigweed; format: in vivo; conditions: visually observed 17th to 23rd day after application
Description: as §1, §2

[5] = test system: prickly sida (Sida spinosa L.); experiment: Test Example 1: foliar treatment, growth inhibition rate, prickly sida; format: in vivo; conditions: visually observed 17th to 23rd day after application
Description: as §1, §2

[6] = test system: velvetleaf (Abutilon theophrasti MEDIC.); experiment: Test Example 1: foliar treatment, growth inhibition rate, velvetleaf; format: in vivo; conditions: visually observed 17th to 23rd day after application
Description: as §1, §2

rice (Oryza sativa L.) = experiment: Test Example 1: foliar treatment, growth inhibition rate, rice; format: in vivo; conditions: visually observed 17th to 23rd day after application
Description: as §1, §2

wheat (Triticum spp.) = experiment: Test Example 1: foliar treatment, growth inhibition rate, wheat; format: in vivo; conditions: visually observed 17th to 23rd day after application
Description: as §1, §2

corn (Zea mays L.) = experiment: Test Example 1: foliar treatment, growth inhibition rate, corn; format: in vivo; conditions: visually observed 17th to 23rd day after application
Description: as §1, §2

[7] = test system: soybean (Glycine max Merr.); experiment: Test Example 1: foliar treatment, growth inhibition rate, soybean; format: in vivo; conditions: visually observed 17th to 23rd day after application
Description: as §1, §2

crabgrass = experiment: Test Example 2: soil application on the day after sowing, growth inhibition rate, crabgrass; format: in vivo, Digitaria sanguinalis L.; conditions: 250 g/ha active ingredient, observed on 19th to 24th day
Description: (§3) Upland field soil was put into a 1/170,000 hectare pot, and seeds of various plants (barnyardgrass, crabgrass, greenfoxtail, redroot pigweed, prickly sida, velvetleaf, rice, wheat, corn and soybean) were sown. On the day after sowing, wettable powders or emulsifiable concentrates of the compounds of the present invention prepared in accordance with a conventional preparation method, were weighed so that the active ingredients became the prescribed amounts, and diluted with water in an amount corresponding to 500 liter per 1 hectare, followed by soil application with a small sprayer. On the 19th to 24th day after the application, the state of growth of the respective plants was visually observed, and the herbicidal effect was evaluated in accordance with a growth inhibition rate (%) of from 0 (equivalent to the non-treated area) to 100% (complete kill).

redroot pigweed = experiment: Test Example 2: soil application on the day after sowing, growth inhibition rate, redroot pigweed; format: in vivo, Amaranthus retroflexus L.; conditions: 250 g/ha active ingredient, observed on 19th to 24th day
Description: as §3

velvetleaf = experiment: Test Example 2: soil application on the day after sowing, growth inhibition rate, velvetleaf; format: in vivo, Abutilon theophrasti MEDIC.; conditions: 250 g/ha active ingredient, observed on 19th to 24th day
Description: as §3

corn = experiment: Test Example 2: soil application on the day after sowing, growth inhibition rate, corn; format: in vivo, Zea mays L.; conditions: 250 g/ha active ingredient, observed on 19th to 24th day
Description: as §3

SMILES | Growth inhibition rate (%) Barnyardgrass ([1]; 31 g/ha active ingredient) [%] | Growth inhibition rate (%) Crabgrass ([2]; 31 g/ha active ingredient) [%] | Growth inhibition rate (%) Greenfoxtail ([3]; 31 g/ha active ingredient) [%] | Growth inhibition rate (%) redroot pigweed ([4]; 31 g/ha active ingredient) [%] | Growth inhibition rate (%) Prickly sida ([5]; 31 g/ha active ingredient) [%] | Growth inhibition rate (%) Velvetleaf ([6]; 31 g/ha active ingredient) [%] | Growth inhibition rate (%) Rice (rice (Oryza sativa L.); 31 g/ha active ingredient) [%] | Growth inhibition rate (%) Wheat (wheat (Triticum spp.); 31 g/ha active ingredient) [%] | Growth inhibition rate (%) Corn (corn (Zea mays L.); 31 g/ha active ingredient) [%] | Growth inhibition rate (%) Soybean ([7]; 31 g/ha active ingredient) [%] | Growth inhibition rate (%) Crabgrass (crabgrass) [%] | Growth inhibition rate (%) redroot pigweed (redroot pigweed) [%] | Growth inhibition rate (%) Velvetleaf (velvetleaf) [%] | Growth inhibition rate (%) Corn (corn) [%] | Growth inhibition rate (%) Barnyardgrass ([1]; 63 g/ha active ingredient) [%] | Growth inhibition rate (%) Crabgrass ([2]; 63 g/ha active ingredient) [%] | Growth inhibition rate (%) Greenfoxtail ([3]; 63 g/ha active ingredient) [%] | Growth inhibition rate (%) redroot pigweed ([4]; 63 g/ha active ingredient) [%] | Growth inhibition rate (%) Prickly sida ([5]; 63 g/ha active ingredient) [%] | Growth inhibition rate (%) Velvetleaf ([6]; 63 g/ha active ingredient) [%] | further results
CCSC(=O)Oc1c(C(=O)c2ccc(S(C)(=O)=O)c(OCC(F)(F)F)c2C)cnn1C [compound 79] | 100 | 100 | 98 | 100 | 75 | 98 | 60 | 0 | 50 | 100 | 90 | 90 | 50 | 0 |  |  |  |  |  |  | 
COCc1c(S(C)(=O)=O)ccc(C(=O)c2cnn(C)c2OC(=O)SC)c1Cl [compound 74] | 100 | 98 | 80 | 100 | 70 | 100 | 95 | 20 | 40 | 98 | 90 | 95 | 70 | 0 |  |  |  |  |  |  | 
CCOCCOc1c(S(C)(=O)=O)ccc(C(=O)c2cnn(C)c2OC(=O)SCC)c1C [compound 77] | 98 | 98 | 98 | 95 | 70 | 80 | 70 | 0 | 10 | 95 | 95 | 90 | 40 | 0 |  |  |  |  |  |  | 
CCSC(=O)Oc1c(C(=O)c2ccc(S(C)(=O)=O)c(COC)c2Cl)cnn1C [compound 42] | 100 | 98 | 95 | 100 | 90 | 95 | 90 | 0 | 0 | 95 | 100 | 100 | 70 | 0 |  |  |  |  |  |  | 
CCSC(=O)Oc1c(C(=O)c2ccc(S(C)(=O)=O)c(OCCCl)c2C)cnn1C [compound 78] | 60 | 70 | 60 | 60 | 60 | 65 | 10 | 0 | 0 | 70 | 95 | 80 | 50 | 0 |  |  |  |  |  |  | 
CCSC(=O)Oc1c(C(=O)c2ccc(S(C)(=O)=O)c(CC3OCCO3)c2C)cnn1C [compound 238] |  |  |  |  |  |  |  |  |  |  |  |  |  |  | 100 | 98 | 98 | 100 | 98 | 100 | Growth inhibition rate (%) Rice (rice (Oryza sativa L.); 63 g/ha active ingredient): 90%; Growth inhibition rate (%) Wheat (wheat (Triticum spp.); 63 g/ha active ingredient): 10%; Growth inhibition rate (%) Corn (corn (Zea mays L.); 63 g/ha active ingredient): 0%; Growth inhibition rate (%) Soybean ([7]; 63 g/ha active ingredient): 98%
CCSC(=O)Oc1c(C(=O)c2ccc(S(C)(=O)=O)c(C=CC#N)c2C)cnn1C [compound 229] |  |  |  |  |  |  |  |  |  |  |  |  |  |  | 100 | 100 | 100 | 100 | 98 | 100 | Growth inhibition rate (%) Rice (rice (Oryza sativa L.); 63 g/ha active ingredient): 95%; Growth inhibition rate (%) Wheat (wheat (Triticum spp.); 63 g/ha active ingredient): 50%; Growth inhibition rate (%) Corn (corn (Zea mays L.); 63 g/ha active ingredient): 60%; Growth inhibition rate (%) Soybean ([7]; 63 g/ha active ingredient): 98%
CCSC(=O)Oc1c(C(=O)c2ccc(S(C)(=O)=O)c(CN(CC#N)C(=O)SCC)c2C)cnn1C [compound 228] |  |  |  |  |  |  |  |  |  |  |  |  |  |  | 98 | 60 | 40 | 40 | 40 | 70 | Growth inhibition rate (%) Rice (rice (Oryza sativa L.); 63 g/ha active ingredient): 0%; Growth inhibition rate (%) Wheat (wheat (Triticum spp.); 63 g/ha active ingredient): 0%; Growth inhibition rate (%) Corn (corn (Zea mays L.); 63 g/ha active ingredient): 0%; Growth inhibition rate (%) Soybean ([7]; 63 g/ha active ingredient): 80%
CCSC(=O)Oc1c(C(=O)c2ccc(S(C)(=O)=O)c(CCCOC)c2C)cnn1C [compound 226] | 100 | 95 | 95 | 95 | 70 | 80 | 100 | 0 | 0 | 100 |  |  |  |  |  |  |  |  |  |  | 
CCSC(=O)Oc1c(C(=O)c2ccc(S(C)(=O)=O)c(CCC#N)c2C)cnn1C [compound 230] |  |  |  |  |  |  |  |  |  |  |  |  |  |  | 100 | 100 | 100 | 100 | 80 | 95 | Growth inhibition rate (%) Rice (rice (Oryza sativa L.); 63 g/ha active ingredient): 95%; Growth inhibition rate (%) Wheat (wheat (Triticum spp.); 63 g/ha active ingredient): 40%; Growth inhibition rate (%) Corn (corn (Zea mays L.); 63 g/ha active ingredient): 0%; Growth inhibition rate (%) Soybean ([7]; 63 g/ha active ingredient): 100%
